How the values were obtained:
[1] = test system: human peripheral blood mononuclear cells (PBMC); test: T-cell proliferation assay (BrdU ELISA), PBMC stimulated with anti-CD3 mAb + anti-CD28 mAb; type: cell-based; details: anti-CD3 mAb (0.1 μg/ml)+anti-CD28 mAb (1 μg/ml); for inhibition at 10 µM / inhibition at 0.03 µM: Homo sapiens, PBMC
[2] = test system: human peripheral blood mononuclear cells (PBMC); test: T-cell proliferation assay (BrdU ELISA), PBMC stimulated with SEB; type: cell-based; details: SEB (0.1 μg/ml), BETA 300 nM
[3] = Example 1, 200000 cells/well, HC 10 μM, ASM 30 nM, BETA 300 nM
[4] = Example 2, 100000 cells/well, HC 10 μM, ASM 30 nM, BETA 300 nM
[5] = Example 3, 50000 cells/well, HC 10 μM, ASM 30 nM, BETA 300 nM
[6] = Example 13, 200000 cells/well, HC 10 μM, FK 30 nM, BETA 300 nM
[7] = Example 14, 100000 cells/well, HC 10 μM, FK 30 nM, BETA 300 nM
[8] = Example 19, 200000 cells/well, HC 10 μM, CsA 300 nM, BETA 300 nM, HC (10 μM)+CsA (30 nM), BETA (300 nM)+CsA (300 nM)
[9] = Example 20, 100000 cells/well, HC 10 μM, CsA 300 nM, BETA 300 nM, HC (10 μM)+CsA (30 nM), BETA (300 nM)+CsA (300 nM)
[10] = Example 21, 50000 cells/well, HC 10 μM, CsA 300 nM, BETA 300 nM, HC (10 μM)+CsA (30 nM), BETA (300 nM)+CsA (300 nM)
[11] = Example 4, 200000 cells/well, HC 10 μM, ASM 30 nM
[12] = Example 5, 100000 cells/well, HC 10 μM, ASM 30 nM
[13] = Example 22, 200000 cells/well, HC 10 μM, CsA 300 nM, HC (10 μM)+CsA (30 nM), BETA (300 nM)+CsA (300 nM)
[14] = Example 6, 200000 cells/well, DEX 300 nM, ASM 30 nM, BETA 300 nM
[15] = Example 7, 100000 cells/well, DEX 300 nM, ASM 30 nM, BETA 300 nM
[16] = Example 8, 50000 cells/well, DEX 300 nM, ASM 30 nM, BETA 300 nM
[17] = Example 15, 200000 cells/well, DEX 300 nM, FK 30 nM, BETA 300 nM
[18] = Example 16, 100000 cells/well, DEX 300 nM, FK 30 nM, BETA 300 nM
[19] = Example 17, 50000 cells/well, DEX 300 nM, FK 30 nM, BETA 300 nM
[20] = Example 23, 200000 cells/well, DEX 300 nM, CsA 300 nM, BETA 300 nM, DEX (300 nM)+CsA (30 nM), BETA (300 nM)+CsA (300 nM)
[21] = Example 24, 100000 cells/well, DEX 300 nM, CsA 300 nM, BETA 300 nM, DEX (300 nM)+CsA (30 nM), BETA (300 nM)+CsA (300 nM)
[22] = Example 25, 50000 cells/well, DEX 300 nM, CsA 300 nM, BETA 300 nM, DEX (300 nM)+CsA (30 nM), BETA (300 nM)+CsA (300 nM)
[23] = Example 9, 200000 cells/well, DEX 300 nM, ASM 30 nM
[24] = Example 10, 100000 cells/well, DEX 300 nM, ASM 30 nM
[25] = Example 26, 200000 cells/well, DEX 300 nM, CsA 300 nM, DEX (300 nM)+CsA (30 nM), BETA (300 nM)+CsA (300 nM)
[26] = Example 18, 100000 cells/well, DEX 300 nM, FK 30 nM

## C[C@]12CCC(=O)C=C1CC[C@@H]1[C@@H]2[C@@H](O)C[C@@]2(C)[C@H]1CC[C@]2(O)C(=O)CO [HC, hydrocortisone]
[1]; [3]
  Normalized OD (% STIM-C): 106.8 % STIM-C
  inhibition at 10 µM: -7.4%
[1]; [4]
  Normalized OD (% STIM-C): 92.0 % STIM-C
  inhibition at 10 µM: < 17%
[1]; [5]
  Normalized OD (% STIM-C): 109.0 % STIM-C
  inhibition at 10 µM: -9.7%
[1]; [6]
  Normalized OD (% STIM-C): 106.8 % STIM-C
  inhibition at 10 µM: -7.4%
[1]; [7]
  Normalized OD (% STIM-C): 92.0 % STIM-C
[1]; [8]
  Normalized OD (% STIM-C): 106.8 % STIM-C
[1]; [9]
  Normalized OD (% STIM-C): 92.0 % STIM-C
[1]; [10]
  Normalized OD (% STIM-C): 109.0 % STIM-C
[2]; [11]
  Normalized OD (% STIM-C): 89.0 % STIM-C
[2]; [12]
  Normalized OD (% STIM-C): 100.5 % STIM-C
[2]; [13]
  Normalized OD (% STIM-C): 89.0 % STIM-C

## CCCCC(=O)O[C@]1(C(=O)CO)[C@@H](C)C[C@H]2[C@@H]3CCC4=CC(=O)C=C[C@]4(C)[C@@]3(F)[C@@H](O)C[C@@]21C [BETA, betamethasone 17-valerate]
[1]; [3]
  Normalized OD (% STIM-C): 105.2 % STIM-C
  OD: 0.808
[1]; [4]
  Normalized OD (% STIM-C): 87.3 % STIM-C
  OD: 0.796
[1]; [5]
  Normalized OD (% STIM-C): 99.4 % STIM-C
  OD: 0.873
[1]; [14]
  Normalized OD (% STIM-C): 89.2 % STIM-C
  OD: 0.703
[1]; [15]
  Normalized OD (% STIM-C): 82.4 % STIM-C
  OD: 0.692
[1]; [16]
  Normalized OD (% STIM-C): 75.4 % STIM-C
  OD: 0.794
[1]; [6]
  Normalized OD (% STIM-C): 105.2 % STIM-C
  OD: 0.808
[1]; [7]
  Normalized OD (% STIM-C): 87.3 % STIM-C
  OD: 0.796
[1]; [17]
  Normalized OD (% STIM-C): 89.2 % STIM-C
  OD: 0.703
[1]; [18]
  Normalized OD (% STIM-C): 82.4 % STIM-C
  OD: 0.692
[1]; [19]
  Normalized OD (% STIM-C): 75.4 % STIM-C
  OD: 0.794
[1]; [8]
  Normalized OD (% STIM-C): 105.2 % STIM-C
  OD: 0.808
[1]; [9]
  Normalized OD (% STIM-C): 87.3 % STIM-C
  OD: 0.796
[1]; [10]
  Normalized OD (% STIM-C): 99.4 % STIM-C
  OD: 0.873
[1]; [20]
  Normalized OD (% STIM-C): 89.2 % STIM-C
  OD: 0.703
[1]; [21]
  Normalized OD (% STIM-C): 82.4 % STIM-C
  OD: 0.692
[1]; [22]
  Normalized OD (% STIM-C): 75.4 % STIM-C
  OD: 0.794
[2]; [11]
  Normalized OD (% STIM-C): 85.0 % STIM-C
  OD: 0.900
[2]; [12]
  Normalized OD (% STIM-C): 117.6 % STIM-C
  OD: 1.001
[2]; [23]
  Normalized OD (% STIM-C): 99.7 % STIM-C
  OD: 0.902
[2]; [24]
  Normalized OD (% STIM-C): 97.4 % STIM-C
  OD: 0.955
[2]; [13]
  Normalized OD (% STIM-C): 85.0 % STIM-C
  OD: 0.900
[2]; [25]
  Normalized OD (% STIM-C): 99.7 % STIM-C
  OD: 0.902

## C=CC[C@@H]1/C=C(\C)C[C@H](C)C[C@H](OC)[C@H]2O[C@@](O)(C(=O)C(=O)N3CCCC[C@H]3C(=O)O[C@H](/C(C)=C/[C@@H]3CC[C@@H](O)[C@H](OC)C3)[C@H](C)[C@@H](O)CC1=O)[C@H](C)C[C@@H]2OC [FK, tacrolimus]
[1]; [6]
  Normalized OD (% STIM-C): 119.9 % STIM-C
  OD: 0.921
  inhibition at 0.03 µM: -21.9%
[1]; [7]
  Normalized OD (% STIM-C): 72.6 % STIM-C
  OD: 0.662
  inhibition at 0.03 µM: < 31%
[1]; [17]
  Normalized OD (% STIM-C): 100.9 % STIM-C
  OD: 0.795
[1]; [18]
  Normalized OD (% STIM-C): 96.3 % STIM-C
  OD: 0.809
[1]; [19]
  Normalized OD (% STIM-C): 79.6 % STIM-C
  OD: 0.838
  inhibition at 0.03 µM: < 26%
[1]; [26]
  Normalized OD (% STIM-C): 78.0 % STIM-C
  OD: 0.905
  inhibition at 0.03 µM: < 25%

— US20060083754A1, “Pharmaceutical combinations comprising corticoids and immunosuppressants for treating corticoid- and/or calcineurin inhibitors-resistant diseases” (priority 2003, published 2006)
